Source: US20140363530A1, “COMPOSITION COMPRISING THE EXTRACT OF PINE TREE LEAF OR THE COMPOUNDS ISOLATED THEREFROM FOR THE PREVENTION AND TREATMENT OF CANCER DISEASE BY INHIBITING HPV VIRUS AND THE USES THEREBY” (priority 2012, published 2014)
Values after ≈ are worked out from the molar mass of the structure shown. Read-outs that look alike come from different tables or passages of the source.

Assays:
[1] = tested on: HCT15 (human colon adenocarcinoma); experiment: SRB cytotoxicity test, HCT15; type: cell-based; conditions: for IC50: Homo sapiens, HCT-15, 48 h, read-out: Cytotoxicity IC50, HCT15
Method: (§1) To determine the cytotoxicity against human tumor cell line of the test samples prepared in Examples, following sulforhodamin B (SRB) bioassy test was performed according to the method disclosed in the literature (Skehan, P., et al., J. Natl. Cancer Inst., 82, 1990, 1107-1112).
(§2) Various human tumor cell lines, i.e., A-549 (human adenocarcinoma of lung, NCI), SK-OV-3 (human ovarian tumor, NCI), SK-MEL-2 (human malignant melanoma, NCI), HCT15 (human colon adenocarcinoma, NCI), MES-SA (human uterine carcinoma, NCI) and MES-SA/DX5 (multidrug resistant carcinoma subline of MES-SA, NCI) were used in the test.
(§3) The subcultured cell lines were detached from the surface of wall using by trypsin-EDTA solution and adjusted to various concentration of cell lines, i.e., 5×10^3 cells/well (A-549, HCT15), 1×10^4 cells/well (SK-MEL-2), 5×10^3 cells/well (SK-OV-3) in 96-well flat bottom microplate. The inoculated cell lines were incubated in CO2 incubator (MCO-20AIC, SANYO Electric Co., LTd.) to be attached on the bottom of incubator and the culture media was removed with aspirator. 6 logarithmic concentrations of the diluted test samples were added to each well containing cell line at 100 μl/well in a three fold dilution manner and the cell was incubated for 48 hours. The culture media in each well was removed and 100μ of 10% trichloroacetic acid was added thereto to be left alone at 4° C. for 1 hour and to fix the cells to the bottom of the plates. […] The cell plates were shaked with titer plate shaker (KOMA Orbital Shaker KE011, KOMABIOTech) for 10 mins to exude the staining solution and to determine the absorbance at 520 nm using by microplate spectrophotometer (Sunrise, TECAN).

[2] = tested on: SK-OV-3 (human ovarian tumor); experiment: SRB cytotoxicity test, SK-OV-3; type: cell-based
Method: as §1, §2, §3

[3] = tested on: SK-MEL-2 (human malignant melanoma); experiment: SRB cytotoxicity test, SK-MEL-2; type: cell-based
Method: as §1, §2, §3

[4] = tested on: A-549 (human adenocarcinoma of lung); experiment: SRB cytotoxicity test, A-549; type: cell-based
Method: as §1, §2, §3

[5] = tested on: MES-SA/DX5 (multidrug resistant carcinoma subline of MES-SA); experiment: SRB cytotoxicity test, MES-SA/DX5; type: cell-based, human; conditions: for IC50: Homo sapiens, MES-SA/Dx5, 48 h
Method: as §1, §2, §3

[6] = tested on: MES-SA (human uterine carcinoma); experiment: SRB cytotoxicity test, MES-SA; type: cell-based; conditions: for IC50: Homo sapiens, MES-SA, 48 h, read-out: Cytotoxicity IC50, MES-SA
Method: as §1, §2, §3

HPV16 PVs = experiment: Virus inhibition test (in vitro), SEAP activity of 293TT cells infected with HPV pseudovirion; type: cell-based; conditions: Human papillomavirus 16, read-out: inhibitory activity from HPV16 PVs
Method: Prior to in vitro antiviral assay, 5×10^3 of 293TT cell was seeded on 96-well plate and incubated at 37° C. for 16 hours in 5% CO2 atmosphere. The culture media was removed and each extract was diluted to the concentration of 100 μg/ml or 50 μg/ml to distribute into each cell at the dose of 100 μl/cell. After treating with the extract for 16 hours, the culture media was removed and the cell was washed with PBS twice. The cell was infected by 106RLU/ml of HPV PVs at the dose of 100 μl/cell and incubated for 48 hours at 37° C. in 5% CO2 atmosphere. To determine the viral activity, the supernatant of the cell culture was used for determine the activity of secreted alkaline phosphatase (SEAP) using by Great EscAPE™ SEAP Chemiluminescence Kit (631738, Clontech, CA, USA). To determine the SEAP activity, relative light units (RLU) value was obtained using by Luminescence coulter (Micro beta triLux 1450, PerkinElmer, CT, USA) and the RLU values of the cell treated with the extract and untreated with the extract, were compared with each other. The decrease of SEAP activity was regarded as the inhibition effect against HPV PVs.
To determine the inhibitory effect on luciferase-comprising HPV virus contagion of the test samples prepared in Examples, following test was performed according to the method disclosed in the literature (Shaneyfelt et al., Virology Journal, 3:68, 2006, 1-11; Roden et al., J. Virol., 70, 1996, 5875-5883; Unckell et al., J. Virol., 71, 1997, 2934-2939; Touze et al., Nucleic Acids Research, 26, 1998, 1317-1323; Selinka et al., J. Virol., 77, 2003, 12961-12967; Klasse et al., Journal of General Virology, 83, 2002, 2091-2108)
5×10^3293TT cell was seeded on 96-well plate and incubate for 16 hours. 50 μg of test sample was mixed with the culture media in the concentration of 100 ug/ml and incubated for 16 hours. The media was washed with 100 μl of PBS twice and the cell was infected with 10^6RLU/ml of HPV pseudovirion at the dose of 100 μl/cell to incubate at 37° C., for 48 hours in 5% CO2 atmosphere.
5× lysis buffer in Great EscAPE™ SEAP Chemiluminescence Kit (631738, Clontech, CA, USA) was made to 1× and both of 45 μl of 1× lysis buffer and 15 μl of cell culture medium were added to 96-well plate (3912, Costar, NY, USA). 60 μl of the substrate in Great EscAPE™ SEAP Chemiluminescence kit was added thereto and the relative light units (RLU) value was obtained using by Luminescence coulter (Micro beta triLux 1450, PerkinElmer, CT, USA). The RLU values of the cell treated with the extract and untreated with the extract, were compared with each other and the decrease of SEAP activity was regarded as the inhibition effect against HPV PVs.

HCT15/CL02 = experiment: SRB cytotoxicity test, HCT15/CL02; type: cell-based, human; conditions: Table 4, 48 hours; for IC50: Homo sapiens, HCT-15
Method: To determine the cytotoxicity against human tumor cell line of the test samples prepared in Examples, following sulforhodamin B (SRB) bioassy test was performed according to the method disclosed in the literature (Skehan, P., et al., J. Natl. […] The inoculated cell lines were incubated in CO2 incubator (MCO-20AIC, SANYO Electric Co., LTd.) to be attached on the bottom of incubator and the culture media was removed with aspirator. 6 logarithmic concentrations of the diluted test samples were added to each well containing cell line at 100 μl/well in a three fold dilution manner and the cell was incubated for 48 hours. […] The cell plates were shaked with titer plate shaker (KOMA Orbital Shaker KE011, KOMABIOTech) for 10 mins to exude the staining solution and to determine the absorbance at 520 nm using by microplate spectrophotometer (Sunrise, TECAN).

[7] = read-out: Cytotoxicity IC50, MES-SA/DX5

Compound	Cytotoxicity IC50, HCT15 [1]	IC50 [5, 7]	inhibition at 50 µg/mL (HPV16 PVs)	IC50 ([1]; Table 4, 48 hours)	IC50 (HCT15/CL02)	IC50 ([6]; Table 4, 48 hours)	further results
9,14-dihydroxytotara-7-ene-8-oic acid [compound (a)]	117.31 µg/mL	–	–	–	–	–	Cytotoxicity IC50, SK-OV-3 [2]: 120.05 µg/mL; Cytotoxicity IC50, SK-MEL-2 [3]: 99.45 µg/mL; Cytotoxicity IC50, A-549 [4]: 127.16 µg/mL
C=C[C@]1(C)CCC2[C@@]3(C)CCC[C@@](C)(CO)C3CC[C@@]2(C)O1 (single isomer, unassigned; ent-18) [compound (h), ent-18-hydrorxy-13-epimanoyl oxide]	–	9.54 µg/mL (≈ 31.1 µM)	70 to 80%	–	–	–	IC50 ([1]; Table 3, 48 hours): 10 µg/mL (≈ 32.8 µM); IC50 ([2]; Homo sapiens, SK-OV-3, Table 3, 48 hours, read-out: Cytotoxicity IC50, SK-OV-3): 12.7 µg/mL (≈ 41.4 µM); IC50 ([3]; Homo sapiens, SK-MEL-2, Table 3, 48 hours, read-out: Cytotoxicity IC50, SK-MEL-2): 11.3 µg/mL (≈ 36.7 µM); IC50 ([4]; Homo sapiens, A549, Table 3, 48 hours, read-out: Cytotoxicity IC50, A-549): 13.3 µg/mL (≈ 43.5 µM); IC50 ([6]; Table 3, 48 hours): 8.17 µg/mL (≈ 26.7 µM)
C=C1CCC2[C@](C)(C(=O)O)CCC[C@]2(C)[C@H]1CC[C@H](C)CCO (stereo partly drawn) [compound (b), (13S)-15-hydroxylabd-8(17)-en-18-oic acid]	–	11.5 µg/mL (≈ 35.7 µM)	70 to 80%	20.2 µg/mL (≈ 62.5 µM)	12.8 µg/mL (≈ 39.8 µM)	19.1 µg/mL (≈ 59.1 µM)	–
C=C1CCC2C(C)(C(=O)O)CCCC2(C)C1CCC(C)CC(=O)O (stereo not drawn) [compound (c), ent-labd-8(17)-ene-15,18-dioic acid]	>30.0 µg/mL	–	–	–	–	–	Cytotoxicity IC50, MES-SA/DX5 ([5]; Table 4, 48 hours): >30.0 µg/mL; Cytotoxicity IC50, HCT15/CL02 (HCT15/CL02): 21.47 µg/mL; Cytotoxicity IC50, MES-SA [6]: >30.0 µg/mL
C=C1CCC2[C@](C)(C(=O)O)CCC[C@]2(C)[C@H]1/C=C/C(C)=O (stereo partly drawn) [compound (d), 13-oxo-15,16-dinorlabda-8(17),11E-dien-19-oic acid]	–	–	70 to 80%	> 30 µg/mL	27.6 µg/mL (≈ 95.2 µM)	> 30 µg/mL	IC50 ([5]; read-out: Cytotoxicity IC50, MES-SA/DX5, Table 4, 48 hours): > 30 µg/mL
C[C@@]1(C(=O)O)CCC[C@]2(C)c3ccc(O)cc3CCC12 (stereo partly drawn) [compound (e), 13-hydroxy-8,11,13-podocarpatrien-18-oic acid]	–	25.8 µg/mL (≈ 94.2 µM)	70 to 80%	> 30 µg/mL	26.4 µg/mL (≈ 96.1 µM)	> 30 µg/mL	–
